Assay results reported in the supplement of paper PMC10307832.

Experiments:
Assay in all cases: relative viability (nuclei count vs DMSO), 5 days (fraction); higher = more cells survive
[1] = compound: COc1cc2nc(N3CCCN(C)CC3)nc(NC3CCN(Cc4ccccc4)CC3)c2cc1OC + Cc1cc(Nc2cc(N3CCN(C)CC3)nc(Sc3ccc(NC(=O)C4CC4)cc3)n2)n[nH]1 [Tozasertib] (partner 0.1 µM)
Outline: (§1)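 Lung cancer cell lines in 1536-well plates got either a single drug or a fixed anchor-drug dose together with five library-drug doses (not always all listed) in √10 steps, by pin tool, on the day after seeding. Nuclei were counted after 5 days, and relative viability is the treated-to-vehicle ratio of nuclei counts. Values are medians of duplicate plates.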

AZD6482 + Pemetrexed = compound: Cc1cc([C@@H](C)Nc2ccccc2C(=O)O)c2nc(N3CCOCC3)cc(=O)n2c1 [AZD6482] + Nc1nc2[nH]cc(CCc3ccc(C(=O)N[C@@H](CCC(=O)O)C(=O)O)cc3)c2c(=O)[nH]1 [Pemetrexed] (partner 0.2 µM)
Outline: as §1

AZD6482 + Crizotinib = compound: Cc1cc([C@@H](C)Nc2ccccc2C(=O)O)c2nc(N3CCOCC3)cc(=O)n2c1 [AZD6482] + C[C@@H](Oc1cc(-c2cnn(C3CCNCC3)c2)cnc1N)c1c(Cl)ccc(F)c1Cl [Crizotinib] (partner 1 µM)
Outline: as §1

AZD6482 + Navitoclax = compound: Cc1cc([C@@H](C)Nc2ccccc2C(=O)O)c2nc(N3CCOCC3)cc(=O)n2c1 [AZD6482] + CC1(C)CCC(c2ccc(Cl)cc2)=C(CN2CCN(c3ccc(C(=O)NS(=O)(=O)c4ccc(N[C@H](CCN5CCOCC5)CSc5ccccc5)c(S(=O)(=O)C(F)(F)F)c4)cc3)CC2)C1 [Navitoclax] (partner 0.5 µM)
Outline: as §1

Row | Cell Line | relative viability ([1]; first compound 0.2 µM) | relative viability ([1]; first compound 0.6325 µM) | relative viability ([1]; first compound 2 µM) | relative viability ([1]; first compound 6.325 µM) | relative viability (AZD6482 + Pemetrexed; first compound 0.08 µM) | relative viability (AZD6482 + Pemetrexed; first compound 0.253 µM) | relative viability (AZD6482 + Pemetrexed; first compound 0.8 µM) | relative viability (AZD6482 + Pemetrexed; first compound 2.53 µM) | relative viability (AZD6482 + Pemetrexed; first compound 8 µM) | relative viability (AZD6482 + Crizotinib; first compound 0.08 µM) | relative viability (AZD6482 + Crizotinib; first compound 0.253 µM) | relative viability (AZD6482 + Crizotinib; first compound 0.8 µM) | relative viability (AZD6482 + Crizotinib; first compound 2.53 µM) | relative viability (AZD6482 + Crizotinib; first compound 8 µM) | relative viability (AZD6482 + Navitoclax; first compound 0.08 µM) | relative viability (AZD6482 + Navitoclax; first compound 0.253 µM) | relative viability (AZD6482 + Navitoclax; first compound 0.8 µM) | relative viability (AZD6482 + Navitoclax; first compound 2.53 µM) | relative viability (AZD6482 + Navitoclax; first compound 8 µM)
1 | HCC-44 | 0.973 | 0.922 | 1.25 | 1.22 | 0.669 | 0.661 | 0.763 | 0.741 | 0.831 | 0.671 | 0.884 | 0.965 | 0.901 | 0.523 | 0.758 | 0.964 | 0.965 | 0.874 | 0.459
2 | HCC-827 | 0.406 | 0.45 | 0.374 | 0.423 | 0.251 | 0.254 | 0.245 | 0.245 | 0.238 | 0.894 | 0.958 | 0.936 | 0.885 | 0.63 | 0.938 | 1.01 | 1.07 | 0.899 | 0.898
3 | NCI-H1623 | 0.432 | 0.45 | 0.442 | 0.411 | – | – | – | – | – | – | – | – | – | – | – | – | – | – | –
4 | NCI-H2347 | 0.568 | 0.604 | 0.743 | 0.64 | 0.382 | 0.455 | 0.362 | 0.38 | 0.364 | – | 0.609 | 0.581 | 0.425 | 0.498 | – | 0.423 | 0.445 | 0.283 | 0.235
5 | PC-14 | 0.587 | 0.61 | 0.64 | 0.505 | 0.133 | 0.125 | 0.115 | 0.15 | 0.135 | 0.826 | 0.896 | 0.904 | 0.783 | 0.876 | 0.926 | 1 | 1.04 | 0.879 | 0.96
6 | NCI-H1651 | 0.846 | 0.75 | 1.01 | 0.668 | 0.578 | 0.545 | 0.556 | 0.401 | 0.482 | 0.816 | 0.857 | 0.874 | 0.835 | 0.729 | 0.883 | 0.917 | 0.881 | 0.676 | 0.636
7 | HARA | 0.123 | 0.125 | 0.0997 | 0.236 | 0.217 | 0.241 | 0.278 | 0.254 | 0.253 | 0.857 | 1.04 | 0.839 | – | 0.899 | 1.11 | 1.16 | 1.13 | – | 1.16
8 | NCI-H1650 | 0.482 | 0.483 | 0.576 | 0.49 | 0.332 | 0.295 | 0.372 | 0.287 | 0.361 | 0.907 | – | 0.958 | 0.662 | 0.653 | 0.873 | – | 0.747 | 0.702 | 0.819
9 | NCI-H1395 | 0.784 | 0.705 | 0.835 | 0.81 | 0.742 | 0.552 | 0.591 | 0.45 | 0.521 | – | – | – | – | – | 0.831 | 0.822 | 0.803 | 0.542 | 0.733
